Reference: article PMC10650955, “α-Aminophosphonate inhibitors of metallo-β-lactamases NDM-1 and VIM-2” (RSC Medicinal Chemistry, 2023)
Counter-ions that a name gives are not always drawn.

How the values were obtained:
[1] = target: T1, VIM-2 (Escherichia coli, UniProt Q5U7L7); experiment: Dose rate inhibition studies for IC50 determination, VIM-2 enzymatic assay; type: biochemical; settings: Enzyme IC50 VIM-2, 0.1 nM VIM-2, 100 μM ZnCl2, nitrocefin substrate, inhibitor 0-800 μM, 3 parallel measurements; N.I. = no enzyme inhibitory activity observed
T1 construct: made in house
Outline: (§1)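 Purified enzyme (0.1 nM VIM-2 or 10 nM NDM-1) preincubated 5 min at 25 °C with inhibitor (0-800 μM) in 50 mM HEPES pH 7.2, 100 μM ZnCl2, 2.5% DMSO, 400 μg/mL BSA. Substrate at 100 μM: nitrocefin for VIM-2 (482 nm), imipenem for NDM-1 (300 nm). IC50 from initial velocities, triplicates.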

[2] = target: T2, 15N-labelled VIM-2 (Escherichia coli, UniProt Q5U7L7); experiment: 1H,15N HSQC NMR chemical shift perturbation titration, VIM-2; type: binding; settings: VIM-2 Kd, 0-16 equiv. ligand, pH 7.0, 310 K
T2 construct: made in house
Experimental: (§2) Solution NMR spectroscopy is a powerful tool to assess protein–ligand interactions under close to physiological conditions.[47] We, therefore, performed NMR chemical shift perturbation (CSP, for details, see section S8, ESI ^†) experiments to identify the amino acid residues of NDM-1 and VIM-2 that are involved in inhibitor binding, making use of the previously published protein assignments.[48,49] Titrations were conducted using ^15N-labelled proteins with 0, 0.5, 1, 2, 4, 8, and 16 equiv. of 5 inhibitors for NDM-1 and of 7 inhibitors for VIM-2.
(§3) For the titrations, ^15N-labelled NDM-1 and ^15N-labelled VIM-2 (250 μM), and titrated ligands (0.5 equiv. in 1 μL) were prepared in the same buffer as the protein (20 mM KPO4, 0.1 mM ZnCl2, pH 7.0 with 10% D2O and 2.5% DMSO-d6). ^1H,^15N HSQC spectra were acquired with 128 × 1024 complex points (F1 × F2) and spectral width of 9090 × 2740 Hz on ^15N-labeled NDM-1/VIM-2 and with every titration step up to 1 : 16 ratio between protein : ligand (0, 0.5, 1, 2, 4, 8, and 16 equiv. of ligand). All experiments were recorded on a Bruker 600 MHz spectrometer at 310 K equipped with a 5 mm TCI cryogenic probe. The NMR data were processed on the MestReNova software with the Mnova Binding plugin. The weighted average chemical shift perturbations (CSP) for the backbone amides were calculated from the observed chemical shift differences in the proton and nitrogen dimensions using the equation (chemical shift scaling factors: FH = 1, FN = 0.156) CSP = Δδ1H,15N = [drawing 13] .
(§4) 7. Chemical shift perturbation histograms
(§5) Chemical shift perturbation was calculated according equation (1) 2
(§6) CSP = Δδ(1H,15N) = √(Δδ1H2 + (1⁄R × Δδ15N2) Rscale = 6.5 (1)
(§7) Where Δδ1H is the chemical shift change for proton dimension, Δδ15N is the chemical shift change for nitrogen dimension, Rscale is a
(§8) The chemical shift perturbations (CSP) were classified as significant (SSP) when the observed Δδ(1H,15N) was greater than the population
(§9) mean plus the standard deviation (µ+1σ) – solid line; (µ+2σ) – dashed line, and (µ+3σ) – dashed line.
(§10) Further on, Kd was calculated according: 3
(§11) ([P]+[L]+Kd)− √([P]+[L]+Kd)2−4[P][L]
(§12) ΔδmaxΔδobs = Δδmax 2[P] (2)
(§13) Where Kd is the dissociation constant, [P] and [L] are protein and ligand concentrations, respectively. Δδmax were estimated in
(§14) MestReNova by extrapolation of the obser ved chemical shift differences Δδobs.

[3] = target: T3, 15N-labelled NDM-1 (Klebsiella pneumoniae, UniProt C7C422); experiment: 1H,15N HSQC NMR chemical shift perturbation titration, NDM-1; type: binding
T3 construct: made in house
T3 sequence (C7C422 29-270 limits assumed): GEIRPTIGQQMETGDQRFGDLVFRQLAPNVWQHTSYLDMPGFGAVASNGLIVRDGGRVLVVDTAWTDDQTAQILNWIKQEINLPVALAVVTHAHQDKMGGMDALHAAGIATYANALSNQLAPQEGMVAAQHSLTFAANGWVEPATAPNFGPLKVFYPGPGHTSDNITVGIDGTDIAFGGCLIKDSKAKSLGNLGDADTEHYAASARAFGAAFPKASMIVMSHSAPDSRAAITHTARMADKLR
Experimental: as §2, §3, §4, §5, §6, §7, §8, §9, §10, §11, §12, §13, §14

[4] = target: T4, NDM-1 (Klebsiella pneumoniae, UniProt C7C422); experiment: Dose rate inhibition studies for IC50 determination, NDM-1 enzymatic assay; type: biochemical; settings: Enzyme IC50 NDM-1, 10 nM NDM-1, 100 μM ZnCl2, imipenem substrate, inhibitor 0-800 μM, 3 parallel measurements; N.I. = no enzyme inhibitory activity observed
T4 construct: made in house
T4 sequence (C7C422 29-270 limits assumed): as above
Outline: as §1

Work on O=C(NC(C1CCCCN1)P(=O)(O)O)c1ccsc1 (centres unmarked) [Compound 5c-1, (Piperidin-2-yl(thiophene-3-carboxamido)methyl)phos-phonic acid hydrochloride] yielded an IC50 [1] of 0.033 ± 0.003 mM, a Kd [2] of 0.4 ± 0.03 mM and a Kd ([3]; Estimated binding constant (Kd), residue 070F, Table S5, per-residue fit, NDM-1 070F) of 15.2 mM. The Kd ([3]; Estimated binding constant (Kd), residue 091T, Table S5, per-residue fit, NDM-1 091T) was 4.17 mM, the Kd ([3]; Estimated binding constant (Kd), residue 108E, Table S5, per-residue fit, NDM-1 108E) was 4.5 mM and the Kd ([3]; Estimated binding constant (Kd), residue 119T, Table S5, per-residue fit, NDM-1 119T) was 10.7 mM. It also gave a Kd ([3]; Estimated binding constant (Kd), residue 123Q, Table S5, per-residue fit, NDM-1 123Q) of 1.69 mM, a Kd ([3]; Estimated binding constant (Kd), residue 124D, Table S5, per-residue fit, NDM-1 124D) of 5.76 mM and a Kd ([3]; Estimated binding constant (Kd), residue 127G, Table S5, per-residue fit, NDM-1 127G) of 10.8 mM. The Kd ([3]; Estimated binding constant (Kd), residue 143A, Table S5, per-residue fit, NDM-1 143A) was 8.49 mM, the Kd ([3]; Estimated binding constant (Kd), residue 149A, Table S5, per-residue fit, NDM-1 149A) was 1.76 mM and the Kd ([3]; Estimated binding constant (Kd), residue 152E, Table S5, per-residue fit, NDM-1 152E) was 3.85 mM. It also gave a Kd ([3]; Estimated binding constant (Kd), residue 159H, Table S5, per-residue fit, NDM-1 159H) of 11.7 mM, a Kd ([3]; Estimated binding constant (Kd), residue 160S, Table S5, per-residue fit, NDM-1 160S) of 5.4 mM and a Kd ([3]; Estimated binding constant (Kd), residue 188G, Table S5, per-residue fit, NDM-1 188G) of 15.8 mM. The Kd ([3]; Estimated binding constant (Kd), residue 191S, Table S5, per-residue fit, NDM-1 191S) was 0.48 mM, the Kd ([3]; Estimated binding constant (Kd), residue 194I, Table S5, per-residue fit, NDM-1 194I) was 6.26 mM and the Kd ([3]; Estimated binding constant (Kd), residue 197G, Table S5, per-residue fit, NDM-1 197G) was 1.51 mM. For the same compound, the Kd ([3]; Estimated binding constant (Kd), residue 205F, Table S5, per-residue fit, NDM-1 205F) was 3.19 mM, the Kd ([3]; Estimated binding constant (Kd), residue 206G, Table S5, per-residue fit, NDM-1 206G) was 3.95 mM and the Kd ([3]; Estimated binding constant (Kd), residue 211K, Table S5, per-residue fit, NDM-1 211K) was 10 mM. For the same compound, the Kd ([3]; Estimated binding constant (Kd), residue 213S, Table S5, per-residue fit, NDM-1 213S) was 9.53 mM, the Kd ([3]; Estimated binding constant (Kd), residue 214K, Table S5, per-residue fit, NDM-1 214K) was 6.4 mM and the Kd ([3]; Estimated binding constant (Kd), residue 217S, Table S5, per-residue fit, NDM-1 217S) was 11.8 mM. It also gave a Kd ([3]; Estimated binding constant (Kd), residue 228H, Table S5, per-residue fit, NDM-1 228H) of 17.9 mM, a Kd ([3]; Estimated binding constant (Kd), residue 229Y, Table S5, per-residue fit, NDM-1 229Y) of 6.74 mM and a Kd ([3]; Estimated binding constant (Kd), residue 230A, Table S5, per-residue fit, NDM-1 230A) of 11.5 mM. It also gave a Kd ([3]; Estimated binding constant (Kd), residue 232S, Table S5, per-residue fit, NDM-1 232S) of 10.2 mM, a Kd ([3]; Estimated binding constant (Kd), residue 248M, Table S5, per-residue fit, NDM-1 248M) of 36.6 mM and a Kd ([3]; Estimated binding constant (Kd), residue 249S, Table S5, per-residue fit, NDM-1 249S) of 4.15 mM. The Kd ([3]; Estimated binding constant (Kd), residue 251S, Table S5, per-residue fit, NDM-1 251S) was 15.4 mM, the Kd ([3]; Estimated binding constant (Kd), residue 254D, Table S5, per-residue fit, NDM-1 254D) was 5.56 mM and the Kd ([3]; Estimated binding constant (Kd), residue 255S, Table S5, per-residue fit, NDM-1 255S) was 10.6 mM. It also gave a Kd ([3]; NDM-1 Kd, NMR chemical shift perturbation, 0-16 equiv. ligand, pH 7.0, 310 K) of 3.1 ± 0.3 mM and an IC50 [4] of 0.219 ± 0.014 mM.
